Assay results published in paper PMC4405350, “From Broad-Spectrum Biocides to Quorum Sensing Disruptors and Mussel Repellents: Antifouling Profile of Alkyl Triphenylphosphonium Salts” (PLoS ONE, 2015).

Assays:
Mushroom tyrosinase = experiment: Tyrosinase fluorescence quenching (fluorescence spectroscopy); type: binding, Agaricus bisporus; settings: 280 nm excitation, 0–30 μM quencher
Protocol: Fluorescence measurements of tyrosinase solutions were performed using an Edinburgh Instruments LifeSpec II fluorescence spectrometer, exciting the complexes at 280 nm with an Edinburgh Instruments EPLED-280 subnanosecond pulsed diode source (typically pulse width at half maximum around 860 ps, repetition rate 10 MHz) and using Edinburg Instruments F900 acquisition software. A multichannel plate photomultiplier was used as the detector using single photon counting technique. Lifetime estimation was made using instrument response function (IRF) reconvolution analysis with FAST software by Edinburgh Instruments, providing a temporal resolution around 0.2 ns. A blank medium without enzyme was used to confirm that the collected fluorescence comes from the enzyme molecules and any influence of the fluorescence of the quencher and buffer components on the enzyme fluorescence is negligible. […]
Fluorescence of enzymes is very sensitive to conformational changes of the protein structure. The interaction of tyrosinase inhibitors can be evaluated by the analysis of the intrinsic tyrosinase fluorescence when tyrosinase and inhibitor (quencher) molecules are mixed in a solution. In particular, we have evaluated the effect of the tyrosinase inhibitor 16. Quenching of tyrosinase fluorescence is expected as a consequence of conformational alterations induced by the quencher. […]

[1] = parameters: method as in earlier work; settings: cited from earlier work
[2] = molecular target: Mushroom tyrosinase (EC 1.14.18.1) (Agaricus bisporus, UniProt C7FF04); experiment: Tyrosinase inhibition assay (L-Dopa, dopachrome at 475 nm); type: biochemical; settings: 15 and 30 μM inhibitor
Mushroom tyrosinase (EC 1.14.18.1), sequence (G1K3P4 entry or part of it): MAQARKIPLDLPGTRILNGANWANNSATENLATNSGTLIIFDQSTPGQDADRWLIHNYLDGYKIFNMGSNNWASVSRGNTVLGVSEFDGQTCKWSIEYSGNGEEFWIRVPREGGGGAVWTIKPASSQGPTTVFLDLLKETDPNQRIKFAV
Mushroom tyrosinase (EC 1.14.18.1), sequence (C7FF04 1-392): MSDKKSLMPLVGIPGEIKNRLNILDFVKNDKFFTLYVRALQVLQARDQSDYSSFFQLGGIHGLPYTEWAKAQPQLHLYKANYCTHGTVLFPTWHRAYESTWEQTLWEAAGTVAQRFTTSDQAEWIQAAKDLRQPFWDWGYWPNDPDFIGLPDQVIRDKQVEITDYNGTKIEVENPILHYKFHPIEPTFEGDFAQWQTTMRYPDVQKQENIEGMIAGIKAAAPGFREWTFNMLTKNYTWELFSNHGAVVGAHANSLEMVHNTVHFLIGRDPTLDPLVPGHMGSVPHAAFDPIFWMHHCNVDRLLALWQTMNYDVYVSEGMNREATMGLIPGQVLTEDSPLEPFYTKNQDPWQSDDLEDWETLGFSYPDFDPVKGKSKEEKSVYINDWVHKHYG
Protocol: Tyrosinase inhibition assays were conducted as described in [52] with slight modifications. First, in order to characterize the Michaelis-Menten parameters of the enzyme kinetics, 100 μl of a mushroom tyrosinase solution (25 U) in sodium phosphate buffer (50 mM, pH 6.5) were pipetted in each well of a flat-bottom microtiter plate (Nunc 167008). Two-fold dilutions of L-Dopa, from 4.8 to 0.075 mM (final concentrations) were mixed (100 μl) with the enzyme solution. The enzymatic reaction was followed by measuring the absorbance at 475 nm every 30 s over 15 min, with shaking (150 rpm) between measurements. Temperature was kept constant at 30 °C. The values of KM and vmax under these conditions were obtained from Lineweaver-Burk plots. For tyrosinase inhibition assays, each well of the microtiter plate was filled with 100 μl of a mushroom tyrosinase solution and the appropriate amount of the test substance dissolved in DMSO. The compounds were pre-incubated with the enzyme at 30 °C for 10 min. Subsequently, the enzymatic reaction was triggered by addition of 100 μl of L-Dopa (1.2 mM test concentration). Formation of dopachrome was followed by measuring the absorbance at 475 nm as described above.

In the case of `CCCCCCCCCCCCCCCC[P+](c1ccccc1)(c1ccccc1)c1ccccc1` [Compound 16], the “Stern-Volmer quenching constant KSV” value (Mushroom tyrosinase) is given as “about 4490 M^-1”, the cmc threshold [1] is given as “around 100 μM” and the “Type of tyrosinase inhibition (Lineweaver-Burk plots)” value [2] is given as “non-competitive inhibition”.
